Measured values from ChEMBL document CHEMBL3399986, “Rapid 'one-pot' synthesis of a novel benzimidazole-5-carboxylate and its hydrazone derivatives as potential anti-inflammatory and antimicrobial agents” (Bioorg Med Chem Lett, 2015).
Values after ≈ are worked out from the molar mass of the structure shown.

Tests used:
Format in all cases: functional
Candida albicans [1] = experiment: Antifungal activity against Candida albicans MTCC 461 assessed as zone of inhibition at 5 mg/ml after 24 hrs by agar well diffusion method; details: MTCC 461, 24 h, read-out: IZ
Rattus norvegicus [2] = experiment: Antiinflammatory activity in rat assessed as inhibition of carrageenan-induced paw edema administered 30 mins prior to carrageenan challenge measured after 2 hrs relative to control
Candida tropicalis [3] = experiment: Antifungal activity against Candida tropicalis MTCC 183 assessed as zone of inhibition at 5 mg/ml after 24 hrs by agar well diffusion method; details: MTCC 183, 24 h, read-out: IZ
Klebsiella pneumoniae [4] = experiment: Antimicrobial activity against Klebsiella pneumoniae MTCC 3384 assessed as zone of inhibition at 5 mg/ml after 24 hrs by agar well diffusion method; details: MTCC 3384, 24 h, read-out: IZ
Escherichia coli [5] = experiment: Antimicrobial activity against Escherichia coli MTCC 4351 assessed as zone of inhibition at 5 mg/ml after 24 hrs by agar well diffusion method; details: MTCC 4351, 24 h, read-out: IZ
Escherichia coli [6] = experiment: Antimicrobial activity against Escherichia coli MTCC 4351 after 24 hrs by broth dilution method; details: MTCC 4351, 24 h
Aspergillus niger [7] = experiment: Antifungal activity against Aspergillus niger MTCC 282 assessed as zone of inhibition at 5 mg/ml after 24 hrs by agar well diffusion method; details: MTCC 282, 24 h, read-out: IZ
Rattus norvegicus [8] = experiment: Antiinflammatory activity in rat assessed as inhibition of carrageenan-induced paw edema administered 30 mins prior to carrageenan challenge measured after 3 hrs relative to control
Penicillium chrysogenum [9] = experiment: Antifungal activity against Penicillium notatum after 48 hrs by broth dilution method
Candida tropicalis [10] = experiment: Antifungal activity against Candida tropicalis MTCC 183 after 48 hrs by broth dilution method; details: MTCC 183, 48 h
Rattus norvegicus [11] = experiment: Antiinflammatory activity in rat assessed as inhibition of carrageenan-induced paw edema administered 30 mins prior to carrageenan challenge measured after 1 hr relative to control
Staphylococcus aureus [12] = experiment: Antimicrobial activity against Staphylococcus aureus MTCC 3160 assessed as zone of inhibition at 5 mg/ml after 24 hrs by agar well diffusion method; details: MTCC 3160, 24 h, read-out: IZ
Penicillium chrysogenum [13] = experiment: Antifungal activity against Penicillium notatum assessed as zone of inhibition at 5 mg/ml after 24 hrs by agar well diffusion method; details: read-out: IZ
Staphylococcus aureus [14] = experiment: Antimicrobial activity against Staphylococcus aureus MTCC 3160 after 24 hrs by broth dilution method; details: MTCC 3160, 24 h
Candida albicans [15] = experiment: Antifungal activity against Candida albicans MTCC 461 after 48 hrs by broth dilution method; details: MTCC 461, 48 h
Klebsiella pneumoniae [16] = experiment: Antimicrobial activity against Klebsiella pneumoniae MTCC 3384 after 24 hrs by broth dilution method; details: MTCC 3384, 24 h
Bacillus subtilis [17] = experiment: Antimicrobial activity against Bacillus subtilis MTCC 441 after 24 hrs by broth dilution method; details: MTCC 441, 24 h
Aspergillus niger [18] = experiment: Antifungal activity against Aspergillus niger MTCC 282 after 48 hrs by broth dilution method; details: MTCC 282, 48 h
Bacillus subtilis [19] = experiment: Antimicrobial activity against Bacillus subtilis MTCC 441 assessed as zone of inhibition at 5 mg/ml after 24 hrs by agar well diffusion method; details: MTCC 441, 24 h, read-out: IZ

Compound | zone of inhibition at 5000 µg/mL (Candida albicans [1]) [mm] | inhibition (INH) (Rattus norvegicus [2]) [%] | zone of inhibition at 5000 µg/mL (Candida tropicalis [3]) [mm] | zone of inhibition at 5000 µg/mL (Klebsiella pneumoniae [4]) [mm] | zone of inhibition at 5000 µg/mL (Escherichia coli [5]) [mm] | MIC (Escherichia coli [6]) [µg/mL] | zone of inhibition at 5000 µg/mL (Aspergillus niger [7]) [mm] | inhibition (INH) (Rattus norvegicus [8]) [%] | MIC (Penicillium chrysogenum [9]) [µg/mL] | MIC (Candida tropicalis [10]) [µg/mL] | inhibition (INH) (Rattus norvegicus [11]) [%] | zone of inhibition at 5000 µg/mL (Staphylococcus aureus [12]) [mm] | zone of inhibition at 5000 µg/mL (Penicillium chrysogenum [13]) [mm] | MIC (Staphylococcus aureus [14]) [µg/mL] | MIC (Candida albicans [15]) [µg/mL] | MIC (Klebsiella pneumoniae [16]) [µg/mL] | MIC (Bacillus subtilis [17]) [µg/mL] | MIC (Aspergillus niger [18]) [µg/mL] | zone of inhibition at 5000 µg/mL (Bacillus subtilis [19]) [mm]
CCCn1c(-c2ccc(Cl)cc2Cl)nc2cc(C(=O)N/N=C/c3ccc(Cl)cc3Cl)ccc21 | 15 | 63.63 | 16 | 15 | 12 | 50 (≈ 96.1 µM) | 18 | 38.39 | 50 (≈ 96.1 µM) | 12.5 (≈ 24 µM) | 51.29 | 15 | 12 | 25 (≈ 48.1 µM) | 25 (≈ 48.1 µM) | 50 (≈ 96.1 µM) | 25 (≈ 48.1 µM) | 25 (≈ 48.1 µM) | 15
CCCn1c(-c2ccc(Cl)cc2Cl)nc2cc(C(=O)N/N=C/c3cc(C)c(O)c(C)c3)ccc21 | 14 | 50.48 | 16 | 17 | 20 | 6.25 (≈ 12.6 µM) | 20 | 43.06 | 25 (≈ 50.5 µM) | 12.5 (≈ 25.2 µM) | 51.11 | 17 | 15 | 12.5 (≈ 25.2 µM) | 50 (≈ 101 µM) | 25 (≈ 50.5 µM) | 12.5 (≈ 25.2 µM) | 6.25 (≈ 12.6 µM) | 17
CCCn1c(-c2ccc(Cl)cc2Cl)nc2cc(C(=O)N/N=C/c3ccccc3)ccc21 | 12 | 54.12 | 12 | 12 | 18 | 12.5 (≈ 27.7 µM) | 19 | 47.15 | 25 (≈ 55.4 µM) | 50 (≈ 111 µM) | 56.85 | 12 | 16 | 50 (≈ 111 µM) | 50 (≈ 111 µM) | 50 (≈ 111 µM) | 25 (≈ 55.4 µM) | 25 (≈ 55.4 µM) | 15
CC1(C)S[C@@H]2[C@H](NC(=O)[C@H](N)c3ccccc3)C(=O)N2[C@H]1C(=O)O [AMPICILLIN] |  |  |  | 23 | 25 | 1.56 (≈ 4.46 µM) |  |  |  |  |  | 26 |  | 1.56 (≈ 4.46 µM) |  | 3.12 (≈ 8.93 µM) | 1.56 (≈ 4.46 µM) |  | 24
O=C([O-])Cc1ccccc1Nc1c(Cl)cccc1Cl.[Na+] [DICLOFENAC SODIUM] |  | 73.28 |  |  |  |  |  | 74.74 |  |  | 62.96 |  |  |  |  |  |  |  | 
OC(Cn1cncn1)(Cn1cncn1)c1ccc(F)cc1F [FLUCONAZOLE] | 23 |  | 24 |  |  |  | 24 |  | 3.12 (≈ 10.2 µM) | 1.56 (≈ 5.09 µM) |  |  | 22 |  | 1.56 (≈ 5.09 µM) |  |  | 1.56 (≈ 5.09 µM) | 
COc1ccc2c(c1)c(CC(=O)O)c(C)n2C(=O)c1ccc(Cl)cc1 [INDOMETHACIN] |  | 68.11 |  |  |  |  |  | 69.34 |  |  | 55.55 |  |  |  |  |  |  |  | 
